Experimental data taken from the NIST ThermoML archive (doi:10.1016/j.fluid.2015.03.049).
Numbers after ± are expanded uncertainties.

Conditions: Liquid; for mass density: 101.33 kPa, Vibrating tube method; for Normal boiling temperature: Ebulliometric method (Recirculating still)

mass density (303.15 K) [kg/m3] | Normal boiling temperature [°C] | mass density (288.15 K) [kg/m3] | mass density (298.15 K) [kg/m3] | SMILES
848.59 ± 0.13 | 42.00 ± 0.2 |  |  | COCOC [dimethoxymethane]
 | 31.50 ± 0.2 | 980.82 ± 0.11 |  | COC=O [methyl methanoate]
 | 90.00 ± 0.2 |  | 1063.3 ± 0.12 | COC(=O)OC [dimethyl carbonate]
